The results in this text go back to the NIST ThermoML archive (doi:10.1016/j.jct.2006.07.025).

The conditions of series [1]: for surface tension liquid-gas: Pendant drop shape; for mass density: 101 kPa, Liquid, Vibrating tube method.
A short description of series [2]: xn = mol fraction of the nth substance listed. The settings on record: x1 = 1; for surface tension liquid-gas: Pendant drop shape; for mass density: 101 kPa, Liquid, Vibrating tube method.

Molecules are shown by their SMILES. “And” between values parts separate entries of the source, which are not always exact repeats. Equal values may be shown once. ± gives the expanded uncertainty stated by the source.

Regarding `Cc1ccc(C)c(C)c1` [1,2,4-trimethylbenzene], the surface tension liquid-gas came out at 29.17 ± 0.33 mN/m in series [1] (298.15 K), 28.67 ± 0.32 mN/m in series [1] (303.15 K), 28.17 ± 0.32 mN/m in series [1] (308.15 K) and 27.67 ± 0.31 mN/m in series [1] (313.15 K). For the same compound, the mass density in series [1] (298.15 K) is 871.66 ± 0.19 kg/m3; in series [1] (303.15 K), 867.61 ± 0.19 kg/m3; in series [1] (308.15 K) it was 863.59 ± 0.19 kg/m3; in series [1] (313.15 K), 859.54 ± 0.19 kg/m3.

On to `Cc1cc(C)cc(C)c1` [1,3,5-trimethylbenzene], for which the surface tension liquid-gas is 28.09 ± 0.31 mN/m in series [1] (298.15 K), 27.67 ± 0.31 mN/m in series [1] (303.15 K), 27.24 ± 0.3 mN/m in series [1] (308.15 K) and 26.82 ± 0.3 mN/m in series [1] (313.15 K). In addition, the mass density in series [1] (298.15 K) was 861.04 ± 0.18 kg/m3; in series [1] (303.15 K), 856.96 ± 0.18 kg/m3; in series [1] (308.15 K) it was 852.84 ± 0.18 kg/m3; in series [1] (313.15 K), 848.74 ± 0.18 kg/m3.

For the compound `CCCCOC(C)=O` [butyl ethanoate], the surface tension liquid-gas is on record as 24.89 ± 0.27 mN/m in series [1] (298.15 K), 24.35 ± 0.27 mN/m in series [1] (303.15 K), 23.82 ± 0.27 mN/m in series [1] (308.15 K) and 23.28 ± 0.26 mN/m in series [1] (313.15 K). Further, the mass density in series [1] (298.15 K) is on record as 876.18 ± 0.14 kg/m3; in series [1] (303.15 K), 871.31 ± 0.14 kg/m3; in series [1] (308.15 K) it was 866.24 ± 0.14 kg/m3; in series [1] (313.15 K), 861.57 ± 0.14 kg/m3.

`CCCCOC(C)=O` [butyl ethanoate] + Cc1cc(C)cc(C)c1: the surface tension liquid-gas was 24.89 ± 0.27 mN/m in series [2] (298.15 K), 24.35 ± 0.27 mN/m in series [2] (303.15 K), 23.82 ± 0.27 mN/m in series [2] (308.15 K) and 23.28 ± 0.26 mN/m in series [2] (313.15 K). Also, the mass density was determined as 876.18 ± 0.14 kg/m3 in series [2] (298.15 K), 871.31 ± 0.14 kg/m3 in series [2] (303.15 K), 866.24 ± 0.14 kg/m3 in series [2] (308.15 K) and 861.57 ± 0.14 kg/m3 in series [2] (313.15 K).

As for `CCCCOC(C)=O` [butyl ethanoate] + Cc1ccc(C)c(C)c1, the surface tension liquid-gas in series [2] (298.15 K) is reported as 24.89 ± 0.27 mN/m; in series [2] (303.15 K), 24.35 ± 0.27 mN/m; in series [2] (308.15 K) it was 23.82 ± 0.27 mN/m; in series [2] (313.15 K), 23.28 ± 0.26 mN/m. The mass density came to 876.18 ± 0.14 kg/m3 in series [2] (298.15 K), 871.31 ± 0.14 kg/m3 in series [2] (303.15 K), 866.24 ± 0.14 kg/m3 in series [2] (308.15 K) and 861.57 ± 0.14 kg/m3 in series [2] (313.15 K).

Regarding `CCCOC(C)=O` [propyl ethanoate], the surface tension liquid-gas was 23.99 ± 0.27 mN/m in series [1] (298.15 K); 23.36 ± 0.26 mN/m and 23.35 ± 0.26 mN/m in series [1] (303.15 K); 22.73 ± 0.26 mN/m in series [1] (308.15 K); 22.1 ± 0.3 mN/m in series [1] (313.15 K). Besides, the mass density in series [1] (298.15 K) came to 882.64 ± 0.15 kg/m3; in series [1] (303.15 K), 876.99 ± 0.15 kg/m3; in series [1] (308.15 K) it was 871.33 ± 0.15 kg/m3; in series [1] (313.15 K) it was 865.68 ± 0.15 kg/m3.

Turning to `CCCOC(C)=O` [propyl ethanoate] + Cc1cc(C)cc(C)c1, the surface tension liquid-gas was determined as 23.99 ± 0.27 mN/m in series [2] (298.15 K), 23.35 ± 0.26 mN/m in series [2] (303.15 K), 22.73 ± 0.26 mN/m in series [2] (308.15 K) and 22.1 ± 0.25 mN/m in series [2] (313.15 K). The mass density in series [2] (298.15 K) is 882.64 ± 0.15 kg/m3; in series [2] (303.15 K), 876.99 ± 0.15 kg/m3; in series [2] (308.15 K) it was 871.33 ± 0.15 kg/m3; in series [2] (313.15 K), 865.68 ± 0.15 kg/m3.

With `CCCOC(C)=O` [propyl ethanoate] + Cc1ccc(C)c(C)c1, the surface tension liquid-gas in series [2] (298.15 K) is 23.99 ± 0.27 mN/m; in series [2] (303.15 K), 23.36 ± 0.26 mN/m; in series [2] (308.15 K), 22.73 ± 0.26 mN/m; in series [2] (313.15 K) it was 22.1 ± 0.3 mN/m. Further, the mass density in series [2] (298.15 K) is on record as 882.64 ± 0.15 kg/m3; in series [2] (303.15 K), 876.99 ± 0.15 kg/m3; in series [2] (308.15 K), 871.33 ± 0.15 kg/m3; in series [2] (313.15 K) it was 865.68 ± 0.15 kg/m3.
